Where a name gives a salt, the structure may show the parent alone. One block for each compound: values may come before it.
What was measured:
[1] = ref 6a; cited from earlier work
[2] = Single dose pharmacokinetics in rats; conditions: rat; for AUC: 30 mg/kg po, normalized to a dose of 30 mg/kg
human CCR5 = human CCR5 (Homo sapiens, UniProt P51681); assay: Inhibition of calcium mobilization of hCCR5/CHO cells stimulated with MIP-1α; assay type: cell-based
Oral cassette dosing PK = assay type: in vivo
T cell tropic (X4) HIV-1 = assay: Anti-HIV activity against X4 HIV-1; assay type: cell-based

Chain of human CCR5 (P51681 whole entry): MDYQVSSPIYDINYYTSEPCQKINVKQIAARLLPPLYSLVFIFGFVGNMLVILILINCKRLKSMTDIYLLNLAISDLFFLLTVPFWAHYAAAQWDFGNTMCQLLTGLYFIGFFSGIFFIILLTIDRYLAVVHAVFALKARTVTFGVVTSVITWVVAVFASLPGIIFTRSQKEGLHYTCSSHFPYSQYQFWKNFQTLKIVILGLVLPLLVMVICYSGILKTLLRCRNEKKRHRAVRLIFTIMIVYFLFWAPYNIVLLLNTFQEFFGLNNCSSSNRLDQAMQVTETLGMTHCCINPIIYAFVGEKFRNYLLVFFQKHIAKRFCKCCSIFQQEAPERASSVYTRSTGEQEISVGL

Structure (SMILES): CCCCN1C(=O)C(CC2CCCCC2)NC(=O)C12CCN(Cc1ccc(Oc3ccccc3)cc1)CC2.Cl (stereo not drawn) [Compound 1a, 1-Butyl-3-(cyclohexylmethyl)-9-(4-phenoxybenzyl)-1,4,9-triazaspiro[5.5]undecane-2,5-dione hydrochloride]
- Cytotoxicity [1]: minimal

Structure (SMILES): CCCCN1C(=O)C(CC(C)C)NC(=O)C12CCN(Cc1ccc(Oc3ccccc3)cc1)CC2.Cl (stereo not drawn) [Compound 1b, 1-Butyl-3-isobutyl-9-(4-phenoxybenzyl)-1,4,9-triazaspiro[5.5]undecane-2,5-dione hydrochloride]
- Cytotoxicity [1]: minimal

- BA ([2]; 30 mg/kg po vs 3 mg/kg iv): 34.1%
Structure (SMILES): CC(C)CC1NC(=O)C2(CCN(Cc3ccc(Oc4ccccc4)cc3)CC2)N(CCC(C)O)C1=O.Cl (stereo not drawn) [Compound 4, 1-(3-Hydroxybutyl)-3-isobutyl-9-(4-phenoxybenzyl)-1,4,9-triazaspiro[5.5]undecane-2,5-dione hydrochloride]

Structure (SMILES): CCCCN1C(=O)C(COC)NC(=O)C12CCN(Cc1ccc(Oc3ccccc3)cc1)CC2 (stereo not drawn) [Compound 13, 1-Butyl-3-(methoxymethyl)-9-(4-phenoxybenzyl)-1,4,9-triazaspiro[5.5]undecane-2,5-dione hydrochloride]
- IC50 (human CCR5): 320 nM

- AUC [2]: 195 ng·h/mL
Structure (SMILES): CCCCN1C(=O)[C@H](CC2CCCCC2)NC(=O)C12CCN(Cc1ccc(Oc3ccc(O)cc3)cc1)CC2.Cl [Compound 36, (3S)-1-Butyl-3-(cyclohexylmethyl)-9-[4-(4-hydroxyphenoxy)benzyl]-1,4,9-triazaspiro[5.5]undecane-2,5-dione hydrochloride]

- AUC after oral cassette dosing (Oral cassette dosing PK): poor
Structure (SMILES): CCCCN1C(=O)[C@H](CC2CCCCC2)NC(=O)C12CCN(Cc1ccc(Oc3ccc(NS(C)(=O)=O)cc3)cc1)CC2.Cl [Compound 38, N-[4-(4-{[(3S)-1-Butyl-3-(cyclohexylmethyl)-2,5-dioxo-1,4,9-triazaspiro[5.5]undec-9-yl]methyl}phenoxy)phenyl]methanesulfonamide hydrochloride]

- AUC after oral cassette dosing (Oral cassette dosing PK): poor
Structure (SMILES): CCCCN1C(=O)[C@H](CC2CCCCC2)NC(=O)C12CCN(Cc1ccc(Oc3ccc(S(N)(=O)=O)cc3)cc1)CC2.Cl [Compound 39, 4-(4-{[(3S )-1-Butyl-3-(cyclohexylmethyl)-2,5-dioxo-1,4,9-triazaspiro[5.5]undec-9-yl]methyl}phenoxy)benzenesulfonamide hydrochloride]

- AUC [2]: 10,532 ng h/mL
Structure (SMILES): CCCCN1C(=O)[C@H](CC2CCCCC2)NC(=O)C12CCN(Cc1ccc(Oc3ccc(C(=O)O)cc3)cc1)CC2.Cl [Compound 40, 4-(4-{[(3S)-1-Butyl-3-(cyclohexylmethyl)-2,5-dioxo-1,4,9-triazaspiro[5.5]undec-9-yl]methyl}phenoxy)benzoic acid hydrochloride]
- Activity against T cell tropic (X4) HIV-1 (T cell tropic (X4) HIV-1): inactive

From article PMC7566811 (Bioorganic & medicinal chemistry, 2010)
